Legend:
Format in all cases: in vivo
[1] = test system: winter barley (Hordeum vulgare); test: Test B postemergence plant response
In short: (§1)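 Plants grown in peat/vermiculite medium were sprayed postemergence at 2–18 cm height (1- to 4-leaf stage). After 13–15 days in the greenhouse, response was rated visually against untreated controls on a 0–100 scale (0 no effect, 100 complete control).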

[2] = test system: chickweed (Stellaria media); test: Test B postemergence plant response
In short: as §1

[3] = test system: canarygrass (Phalaris minor); test: Test B postemergence plant response
In short: as §1

[4] = test system: giant foxtail (Setaria faberii); test: Test B pre-/postemergence plant response
In short: (§2)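 Steps: sow seed in loam–sand soil and spray preemergence, or grow plants in peat-based medium to 1–4 leaves (2–18 cm) and spray postemergence; formulation is non-phytotoxic solvent plus surfactant; hold in greenhouse 13–15 days; score visually vs controls, 0 = no effect, 100 = complete control.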

[5] = test system: corn (Zea mays); test: Test B pre-/postemergence plant response
In short: as §2

[6] = test system: ragweed (common ragweed, Ambrosia elatior); test: Test B pre-/postemergence plant response
In short: as §2

[7] = test system: johnsongrass (Sorghum halepense); test: Test B pre-/postemergence plant response
In short: as §2

[8] = test system: wheat (Triticum aestivum); test: Test B pre-/postemergence plant response
In short: as §2

[9] = test system: downy bromegrass (Bromus tectorum); test: Test B pre-/postemergence plant response
In short: as §2

[10] = test system: Italian ryegrass (Lolium multiflorum); test: Test B pre-/postemergence plant response
In short: as §2

[11] = test system: velvetleaf (Abutilon theophrasti); test: Test B pre-/postemergence plant response
In short: as §2

[12] = test system: soybean (Glycine max); test: Test B pre-/postemergence plant response
In short: as §2

[13] = test system: bermudagrass (Cynodon dactylon); test: Test B pre-/postemergence plant response
In short: as §2

[14] = test system: pigweed (Amaranthus retroflexus); test: Test B pre-/postemergence plant response
In short: as §2

[15] = test system: goosegrass (Eleusine indica); test: Test B pre-/postemergence plant response
In short: as §2

[16] = test system: blackgrass (Alopecurus myosuroides); test: Test B pre-/postemergence plant response
In short: as §2

[17] = test system: morningglory (Ipomoea coccinea); test: Test B pre-/postemergence plant response
In short: as §2

[18] = test system: green foxtail (Setaria viridis); test: Test B pre-/postemergence plant response
In short: as §2

[19] = 31 g ai/ha, postemergence, scale 0 to 100, 0 is no effect, 100 is complete control
[20] = Postemergence, 62 g ai/ha, scale 0 (no effect) to 100 (complete control), 13 to 15 days
[21] = Postemergence, 125 g ai/ha, visual rating after 13 to 15 days, scale 0 (no effect) to 100 (complete control)
[22] = Postemergence, 250 g ai/ha, scale 0 to 100 (0 no effect, 100 complete control)
[23] = 250 g ai/ha, Preemergence, 0 to 100 scale
[24] = Preemergence, 31 g ai/ha, scale 0 to 100 (0 no effect, 100 complete control)
[25] = Preemergence, 62 g ai/ha, scale 0 to 100, 0 no effect, 100 complete control
[26] = Preemergence, 125 g ai/ha, 0 to 100 scale

Cc1ccc(F)c(-n2c(-c3ccccc3)ncc(C(=O)C3=C(O)CCCC3=O)c2=O)c1 [Compound 51]
20: Plant response rating, Blackgrass [16, 23] | Plant response rating, Morningglory [17, 25] | Morningglory plant response rating [17, 26]
90: Plant response rating, Ragweed [6, 23] | Plant response rating, Ragweed [6, 21] | Plant response rating, Velvetleaf [11, 21] | Plant response rating, Soybean [12, 20] | Plant response rating, Bermudagrass [13, 20] | Plant response rating, Bermudagrass [13, 21] | Plant response rating, Morningglory [17, 21]
30: Plant response rating, Barley [1, 21] | Plant response rating, Wheat [8, 22] | Plant response rating, Ryegrass, Italian [10, 22] | Plant response rating, Blackgrass [16, 20]
55: Plant response rating, Bromegrass, Downy [9, 21] | Plant response rating, Blackgrass [16, 22]
50: Plant response rating, Barley [1, 22] | Foxtail, Giant plant response rating [4, 26] | Plant response rating, Bromegrass, Downy [9, 19] | Plant response rating, Bromegrass, Downy [9, 20] | Plant response rating, Blackgrass [16, 21] | Plant response rating, Foxtail, Green [18, 24] | Plant response rating, Foxtail, Green [18, 25]
45: Plant response rating, Foxtail, Giant [4, 25]
60: Plant response rating, Canarygrass [3, 19] | Plant response rating, Canarygrass [3, 20] | Plant response rating, Canarygrass [3, 21] | Plant response rating, Bromegrass, Downy [9, 22]
98: Plant response rating, Canarygrass [3, 22] | Plant response rating, Johnsongrass [7, 22] | Velvetleaf plant response rating [11, 26] | Plant response rating, Bermudagrass [13, 22] | Plant response rating, Bermudagrass [13, 25] | Plant response rating, Pigweed [14, 21] | Plant response rating, Goosegrass [15, 24] | Foxtail, Green plant response rating [18, 26]
70: Plant response rating, Morningglory [17, 23]
10: Plant response rating, Wheat [8, 23] | Plant response rating, Wheat [8, 20] | Plant response rating, Wheat [8, 21] | Plant response rating, Ryegrass, Italian [10, 21] | Blackgrass plant response rating [16, 26]
40: Plant response rating, Bromegrass, Downy [9, 23]
80: Plant response rating, Chickweed [2, 19] | Plant response rating, Chickweed [2, 20] | Plant response rating, Foxtail, Giant [4, 19] | Plant response rating, Foxtail, Giant [4, 20] | Plant response rating, Corn [5, 20] | Plant response rating, Corn [5, 21] | Plant response rating, Ragweed [6, 19] | Plant response rating, Ragweed [6, 20] | Ragweed plant response rating [6, 26] | Plant response rating, Johnsongrass [7, 23] | Plant response rating, Velvetleaf [11, 19] | Soybean plant response rating [12, 26] | Plant response rating, Bermudagrass [13, 19] | Plant response rating, Goosegrass [15, 20] | Plant response rating, Morningglory [17, 20]
0: Plant response rating, Foxtail, Giant [4, 24] | Plant response rating, Corn [5, 23] | Plant response rating, Corn [5, 24] | Plant response rating, Corn [5, 25] | Corn plant response rating [5, 26] | Plant response rating, Johnsongrass [7, 24] | Plant response rating, Wheat [8, 24] | Wheat plant response rating [8, 26] | Plant response rating, Bromegrass, Downy [9, 24] | Plant response rating, Bromegrass, Downy [9, 25] | Plant response rating, Ryegrass, Italian [10, 19] | Plant response rating, Ryegrass, Italian [10, 20] | Plant response rating, Ryegrass, Italian [10, 24] | Ryegrass, Italian plant response rating [10, 26] | Plant response rating, Soybean [12, 24] | Plant response rating, Blackgrass [16, 19] | Plant response rating, Blackgrass [16, 24] | Plant response rating, Blackgrass [16, 25] | Plant response rating, Morningglory [17, 24]
100: Plant response rating, Velvetleaf [11, 23] | Plant response rating, Bermudagrass [13, 23] | Bermudagrass plant response rating [13, 26] | Plant response rating, Pigweed [14, 23] | Plant response rating, Pigweed [14, 22] | Plant response rating, Pigweed [14, 24] | Pigweed plant response rating [14, 26] | Plant response rating, Goosegrass [15, 23] | Goosegrass plant response rating [15, 26] | Plant response rating, Morningglory [17, 22] | Plant response rating, Foxtail, Green [18, 23] | Plant response rating, Foxtail, Green [18, 22]
5: Plant response rating, Barley [1, 19] | Plant response rating, Johnsongrass [7, 25] | Plant response rating, Wheat [8, 19] | Bromegrass, Downy plant response rating [9, 26] | Plant response rating, Ryegrass, Italian [10, 23]
25: Plant response rating, Barley [1, 20]
65: Plant response rating, Ragweed [6, 24]
75: Plant response rating, Foxtail, Giant [4, 23] | Plant response rating, Corn [5, 19] | Plant response rating, Johnsongrass [7, 19] | Plant response rating, Johnsongrass [7, 20] | Johnsongrass plant response rating [7, 26] | Plant response rating, Velvetleaf [11, 24] | Plant response rating, Goosegrass [15, 19] | Plant response rating, Morningglory [17, 19]
85: Plant response rating, Chickweed [2, 21] | Plant response rating, Foxtail, Giant [4, 21] | Plant response rating, Foxtail, Giant [4, 22] | Plant response rating, Corn [5, 22] | Plant response rating, Johnsongrass [7, 21] | Plant response rating, Velvetleaf [11, 20] | Plant response rating, Soybean [12, 19] | Plant response rating, Soybean [12, 23] | Plant response rating, Pigweed [14, 19] | Plant response rating, Goosegrass [15, 21] | Plant response rating, Goosegrass [15, 22] | Plant response rating, Foxtail, Green [18, 19]
95: Plant response rating, Chickweed [2, 22] | Plant response rating, Ragweed [6, 22] | Plant response rating, Velvetleaf [11, 22] | Plant response rating, Soybean [12, 21] | Plant response rating, Soybean [12, 22] | Plant response rating, Bermudagrass [13, 24] | Plant response rating, Pigweed [14, 20] | Plant response rating, Foxtail, Green [18, 20] | Plant response rating, Foxtail, Green [18, 21]
